“And” between values parts separate entries of the source, which are not always exact repeats. Equal values may be shown once. Read-outs that look alike come from different tables or passages of the source.
Legend:
[1] = tested on: M. tuberculosis H37Rv; test: MIC determination in different media; format: cell-based; settings: Mycobacterium tuberculosis, read-out: Minimum inhibitory concentration (MIC)
[2] = biological target: MtbCoaBC (Mycobacterium tuberculosis, UniProt P9WNZ1); test: biochemical; format: biochemical; settings: for activity at 0.03125 µM / activity at 0.0625 µM / activity at 0.25 µM / activity at 0.5 µM / activity at 1 µM / activity at 2 µM: relative to average DMSO CT; for Activity R1 / Activity R3: slope of absorbance at 360nm vs time (s)
MtbCoaBC, sequence (P9WNZ1 whole entry): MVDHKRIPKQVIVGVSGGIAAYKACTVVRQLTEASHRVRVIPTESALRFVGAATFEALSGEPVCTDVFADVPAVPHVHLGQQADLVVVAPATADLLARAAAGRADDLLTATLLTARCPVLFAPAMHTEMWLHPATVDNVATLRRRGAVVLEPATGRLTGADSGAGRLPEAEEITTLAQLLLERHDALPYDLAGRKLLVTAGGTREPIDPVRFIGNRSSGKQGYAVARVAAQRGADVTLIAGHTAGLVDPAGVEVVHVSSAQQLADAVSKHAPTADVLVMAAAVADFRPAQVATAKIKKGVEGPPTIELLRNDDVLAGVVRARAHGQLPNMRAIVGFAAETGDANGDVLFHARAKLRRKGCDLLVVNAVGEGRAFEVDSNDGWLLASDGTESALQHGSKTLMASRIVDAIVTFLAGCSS

## Cc1ccc(-c2oc3cc(O)cc(O)c3c(=O)c2O)cc1C [compound 2d]
[1]; 7H9/ADC/Glycerol
  MIC: > 250 µM
[1]; 7H9/Cholesterol/Tyloxapol
  MIC: > 250 µM
[1]; GAST/Fe
  MIC: > 250 µM
[2]; 2d at 0.03125 uM, replicate R1, read-out: Inhibition % R1
  inhibition at 0.03125 µM: 0.7%
[2]; 2d at 0.03125 uM, replicate R1, read-out: Activity % R1
  activity at 0.03125 µM: 99.3%
[2]; 2d at 0.03125 uM, replicate R1
  Activity R1: 0.0001845
[2]; 2d at 0.03125 uM, replicate R2, read-out: Inhibition % R2
  inhibition at 0.03125 µM: 0.97%
[2]; 2d at 0.03125 uM, replicate R2, read-out: Activity % R2
  activity at 0.03125 µM: 99%
[2]; 2d at 0.03125 uM, replicate R3, read-out: Inhibition % R3
  inhibition at 0.03125 µM: 0.58%
[2]; 2d at 0.03125 uM, replicate R3, read-out: Activity % R3
  activity at 0.03125 µM: 99.4%
[2]; 2d at 0.03125 uM, replicate R3
  Activity R3: 0.0001847
[2]; 2d at 0.0625 uM, replicate R1, read-out: Inhibition % R1
  inhibition at 0.0625 µM: 8.46%
[2]; 2d at 0.0625 uM, replicate R1, read-out: Activity % R1
  activity at 0.0625 µM: 91.5%
[2]; 2d at 0.0625 uM, replicate R1
  Activity R1: 0.0001701
[2]; 2d at 0.0625 uM, replicate R2, read-out: Inhibition % R2
  inhibition at 0.0625 µM: 5.42%
[2]; 2d at 0.0625 uM, replicate R2, read-out: Activity % R2
  activity at 0.0625 µM: 94.6%
[2]; 2d at 0.0625 uM, replicate R3, read-out: Inhibition % R3
  inhibition at 0.0625 µM: 3.86%
[2]; 2d at 0.0625 uM, replicate R3, read-out: Activity % R3
  activity at 0.0625 µM: 96.1%
[2]; 2d at 0.0625 uM, replicate R3
  Activity R3: 0.0001786
[2]; 2d at 0.25 uM, replicate R1, read-out: Inhibition % R1
  inhibition at 0.25 µM: 14.5%
[2]; 2d at 0.25 uM, replicate R1, read-out: Activity % R1
  activity at 0.25 µM: 85.5%
[2]; 2d at 0.25 uM, replicate R1
  Activity R1: 0.0001588
[2]; 2d at 0.25 uM, replicate R2, read-out: Inhibition % R2
  inhibition at 0.25 µM: 31.1%
[2]; 2d at 0.25 uM, replicate R2, read-out: Activity % R2
  activity at 0.25 µM: 68.9%
[2]; 2d at 0.25 uM, replicate R3, read-out: Inhibition % R3
  inhibition at 0.25 µM: 29.5%
[2]; 2d at 0.25 uM, replicate R3, read-out: Activity % R3
  activity at 0.25 µM: 70.5%
[2]; 2d at 0.25 uM, replicate R3
  Activity R3: 0.000131
[2]; 2d at 0.5 uM, replicate R1, read-out: Inhibition % R1
  inhibition at 0.5 µM: 41%
[2]; 2d at 0.5 uM, replicate R1, read-out: Activity % R1
  activity at 0.5 µM: 59%
[2]; 2d at 0.5 uM, replicate R1
  Activity R1: 0.0001096
[2]; 2d at 0.5 uM, replicate R2, read-out: Inhibition % R2
  inhibition at 0.5 µM: 49.6%
[2]; 2d at 0.5 uM, replicate R2, read-out: Activity % R2
  activity at 0.5 µM: 50.4%
[2]; 2d at 0.5 uM, replicate R3, read-out: Inhibition % R3
  inhibition at 0.5 µM: 54%
[2]; 2d at 0.5 uM, replicate R3, read-out: Activity % R3
  activity at 0.5 µM: 46%
[2]; 2d at 0.5 uM, replicate R3
  Activity R3: 8.549e-5 and 0.000085493
[2]; 2d at 1 uM, replicate R1, read-out: Inhibition % R1
  inhibition at 1 µM: 63%
[2]; 2d at 1 uM, replicate R1, read-out: Activity % R1
  activity at 1 µM: 37%
[2]; 2d at 1 uM, replicate R1
  Activity R1: 6.875e-5 and 0.000068751
[2]; 2d at 1 uM, replicate R2, read-out: Inhibition % R2
  inhibition at 1 µM: 75%
[2]; 2d at 1 uM, replicate R2, read-out: Activity % R2
  activity at 1 µM: 25%
[2]; 2d at 1 uM, replicate R3, read-out: Inhibition % R3
  inhibition at 1 µM: 72.4%
[2]; 2d at 1 uM, replicate R3, read-out: Activity % R3
  activity at 1 µM: 27.6%
[2]; 2d at 1 uM, replicate R3
  Activity R3: 5.136e-5 and 0.000051357
[2]; 2d at 2 uM, replicate R1, read-out: Inhibition % R1
  inhibition at 2 µM: 79%
[2]; 2d at 2 uM, replicate R1, read-out: Activity % R1
  activity at 2 µM: 21%
[2]; 2d at 2 uM, replicate R1
  Activity R1: 3.9e-5 and 0.000039000
[2]; 2d at 2 uM, replicate R2, read-out: Inhibition % R2
  inhibition at 2 µM: 91%
[2]; 2d at 2 uM, replicate R2, read-out: Activity % R2
  activity at 2 µM: 8.99%
[2]; 2d at 2 uM, replicate R3, read-out: Inhibition % R3
  inhibition at 2 µM: 85%
[2]; 2d at 2 uM, replicate R3, read-out: Activity % R3
  activity at 2 µM: 15%
[2]; 2d at 2 uM, replicate R3
  Activity R3: 2.786e-5 and 0.000027864
[2]; 2d at […], replicate R1
  Activity R1: 0.0001624
[2]; 2d at […], replicate R3
  Activity R3: 0.0001724
[2]; CoaB activity, […] CTP, […] PPA, 500 µM L-cysteine, average of three independent experiments ± SD, read-out: IC50 EnzChek MtbCoaBC
  IC50: 540 ± 60 nM
